From patent publication USRE39921E1, “Chemical compounds” (SmithKline Beecham Corporation, priority 1999, dated 2007)
Counter-ions that a name gives are not always drawn.

Tests used:
[1] = molecular target: T1, recombinant human NK1 receptors (Homo sapiens, UniProt P25103); experiment: NK1-receptor binding affinity: displacement of [3H]-substance P from CHO cell membranes; conditions: average of at least two determinations, [3H]-substance P displacement, read-out: pki (negative logarithm of the inhibition constant Ki of displacer ligands) (converted)
T1 construct: expressed in transfected cells; host or cells: Chinese Hamster Ovary (CHO) cells, membrane preparation
T1 sequence (P25103 whole entry): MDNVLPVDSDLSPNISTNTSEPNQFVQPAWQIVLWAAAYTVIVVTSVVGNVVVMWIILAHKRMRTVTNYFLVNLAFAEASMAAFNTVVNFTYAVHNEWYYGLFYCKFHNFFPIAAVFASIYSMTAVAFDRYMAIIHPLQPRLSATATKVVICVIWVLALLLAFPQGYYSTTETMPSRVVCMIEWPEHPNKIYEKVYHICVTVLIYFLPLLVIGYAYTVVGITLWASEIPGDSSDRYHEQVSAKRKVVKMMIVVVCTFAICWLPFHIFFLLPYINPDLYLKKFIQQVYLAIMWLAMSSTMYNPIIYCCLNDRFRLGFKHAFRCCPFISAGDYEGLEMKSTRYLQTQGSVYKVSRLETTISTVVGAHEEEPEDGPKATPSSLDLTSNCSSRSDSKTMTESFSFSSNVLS
Description: Thus ligand binding was performed in 0.4 ml of 50 mM HEPES, pH 7.4, containing 3 mM MnCl2, 0.02% BSA, 0.5 nM [^3H]Substance P (30+56 Ci/mmol, Amersham), a final membrane concentration of 25 μg of protein/ml, and the test compounds. The incubation proceeded at room temperature for 40 min.
The affinity of the compound of the invention for NK1 receptor was determined using the NK1-receptor binding affinity method measuring in vitro by the compounds' ability to displace [3H]—substance P (SP) from recombinant human NK1 receptors expressed in Chinese Hamster Ovary (CHO) cell membranes. The affinity values are expressed as negative logarithm of the inhibition constant (Ki) of displacer ligands (pKi).

nk1 receptor = molecular target: T2, nk1 receptor (Meriones unguiculatus, UniProt Q5DUB1); experiment: gerbil foot tapping model (hind foot tapping induced by icv NK1 agonist); type: in vivo; conditions: oral administration, one hour before icv NK1 agonist; dose inhibiting tapping by 50%
T2 construct: from tissue; host or cells: living gerbil, central NK1 receptors (agonist infused icv)
T2 sequence (Q5DUB1 whole entry, the tested form may be a part): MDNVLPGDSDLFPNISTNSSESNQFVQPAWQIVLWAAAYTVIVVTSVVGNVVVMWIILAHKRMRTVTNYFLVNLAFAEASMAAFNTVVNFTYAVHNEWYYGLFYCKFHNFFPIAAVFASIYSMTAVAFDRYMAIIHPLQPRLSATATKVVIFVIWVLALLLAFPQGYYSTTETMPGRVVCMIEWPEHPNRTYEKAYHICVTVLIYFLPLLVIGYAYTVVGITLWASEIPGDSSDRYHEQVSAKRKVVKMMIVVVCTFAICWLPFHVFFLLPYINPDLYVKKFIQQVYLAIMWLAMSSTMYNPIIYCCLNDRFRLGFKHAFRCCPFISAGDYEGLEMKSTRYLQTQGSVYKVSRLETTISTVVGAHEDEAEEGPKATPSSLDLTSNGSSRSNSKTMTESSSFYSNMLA
Description: The action of the compounds of the invention at the NK1 receptor may be determined by using conventional tests. Thus the ability to bind at the NK1 receptor was determined using the gerbil foot tapping model as described by Rupniak & Williams, Eur. J. of Pharmacol., 1994.
The ability of the compounds of the invention at the nk1 receptor may be determined using the gerbil foot tapping model as described by Rupniak & Williams, Eur. Jour. of Pharmacol., 1994.
The compound was administered orally and one hour later an NK1 agonist (e.g. delta-Aminovaleryl^6[Pro^9,Me-Leu^10]-substance P (7-11)) (3 pmol in 5 μL, icv) was infused directly in the cerebral ventricules of the animals. The duration of hind foot tapping induced by the NK1 agonist (e.g. delta-Aminovaleryl^6[Pro^9,Me-Leu^10]-substance P (7-11)) was recorded continuously for 3 min using a stopclock. […] Alternatively the compounds may be administered subcutaneously or intraperitoneally.

Row | SMILES | melting point [°C] | Ki [1] [nM] | ED50(mg/kg po) (nk1 receptor) [mg/kg]
1 | CC(C)c1cccc(C2CNCCN2C(=O)N(C)Cc2cc(C(F)(F)F)cc(C(F)(F)F)c2)c1.Cl (stereo not drawn) | 77 to 80 | – | –
2 | Cc1cc(F)ccc1C1CNCCN1C(=O)N1CC=CCC1c1cc(C(F)(F)F)cc(C(F)(F)F)c1 (single isomer, unassigned) [Example 28, hydrochloride] | – | 0.49 | –
3 | Cc1cc(F)ccc1[C@H]1CNCCN1C(=O)N1CCCCC1c1cc(C(F)(F)F)cc(C(F)(F)F)c1 (single isomer, unassigned) [Example 29, hydrochloride] | – | 1.35 | –
4 | C=CCC(c1cc(C(F)(F)F)cc(C(F)(F)F)c1)N(C)C(=O)N1CCNCC1c1ccc(F)cc1C (single isomer, unassigned) [Example 30, 2-(4-Fluoro-2-methyl-phenyl)-piperazine-1-carboxylic acid [1-(3,5-bis-trifluoromethyl-phenyl)-but-3-enyl]-methyl-amide hydrochloride] | – | 1.66 | –
5 | Cc1cc(F)ccc1C1CNCCN1C(=O)N(C)C(c1cc(C(F)(F)F)cc(C(F)(F)F)c1)C(C)C (single isomer, unassigned) [Example 32, 2-(4-Fluoro-2-methyl-phenyl)-piperazine-1-carboxylic acid [1-(3,5-bis-trifluoromethyl-phenyl)-2-methyl-propyl]-methyl-amide hydrochloride] | – | 1.02 | –
6 | Cc1cc(F)ccc1C1CNCCN1C(=O)N(C)C(c1cc(C(F)(F)F)cc(C(F)(F)F)c1)C1CC1 (single isomer, unassigned) [Example 34, 2(4-Fluoro-2-methyl-phenyl)-piperazine-1-carboxylic acid [(3,5-bis-trifluoromethyl-phenyl)-cyclopropyl-methyl]-methyl-amide hydrochloride] | – | 0.794 | –
7 | Cc1cc(F)ccc1C1CNCCN1C(=O)N(C)Cc1cc(C(F)(F)F)cc(C(F)(F)F)c1.Cl (stereo not drawn) [Example 1, 2-(4-Fluoro-2-methyl-phenyl)-piperazine-1carboxylic acid (3,5-bistrifluoromethyl-benzyl)-methyl-amide hydrochloride] | > 220 | 1.07 | –
8 | Cc1cc(C2CNCCN2C(=O)N(C)Cc2cc(C(F)(F)F)cc(C(F)(F)F)c2)ccc1F.Cl (stereo not drawn) [Example 4, 2(4-Fluoro-3-methyl-phenyl)-piperazine-1-carboxylic acid (3,5-bis-trifluoromethyl-benzyl)-methyl-amide hydrochloride] | 70 to 72 | 4.37 | –
9 | CN(Cc1cc(C(F)(F)F)cc(C(F)(F)F)c1)C(=O)N1CCNCC1c1ccc(F)cc1F.Cl (stereo not drawn) [Example 5, 2-(2,4-Difluoro-phenyl)-piperazine-1-carboxylic acid (3,5-bis-trifluoromethyl-benzyl)-methyl-amide hydrochloride] | 220 to 230 | 2.14 | –
10 | Cc1cc(F)ccc1[C@H]1CNCCN1C(=O)N(C)Cc1cc(C(F)(F)F)cc(C(F)(F)F)c1 [Example 8, (−)-2-(S)-(4-Fluoro-2-methyl-phenyl)-piperazine-1-carboxylic acid (3,5-bis-trifluoromethyl-benzyl)-methyl-amide hydrochloride] | – | 0.427 | –
11 | CN(Cc1cc(C(F)(F)F)cc(C(F)(F)F)c1)C(=O)N1CCNCC1c1ccc(F)cc1 (stereo not drawn) [Example 12, hydrochloride] | – | 2 | –
12 | CN(Cc1ccc(C(F)(F)F)c(C(F)(F)F)c1)C(=O)N1CCNCC1c1ccc(F)cc1.Cl (stereo not drawn) [Example 12] | > 200 | – | –
13 | CN(Cc1cc(C(F)(F)F)cc(C(F)(F)F)c1)C(=O)N1CCNCC1c1ccc(Cl)cc1Cl (stereo not drawn) [Example 14, 2-(2,4-Dichloro-phenyl)-piperazine-1-carboxylic acid (3,5-bistrifluoro methyl-benzyl)-methyl-amide hydrochloride] | – | 2 | –
14 | CC(=O)O.Cc1cc(F)ccc1[C@H]1CNCCN1C(=O)N(C)[C@@H](C)c1cc(C(F)(F)F)cc(C(F)(F)F)c1 [Example 19, 2-(S)-(4-Fluoro-2-methyl-phenyl)-piperazine-1-carboxylic acid [1-(S)-(3,5-bis-trifluoromethyl-phenyl)-ethyl]-methyl-amide acetate] | – | – | 0.04
15 | Cc1cc(F)ccc1[C@H]1CN(C(=O)CN)CCN1C(=O)N(C)Cc1cc(C(F)(F)F)cc(C(F)(F)F)c1.Cl [Example 20, 4-(2-Amino-acetyl)-2-(S)-(4-fluoro-2-methyl-phenyl)-piperazine-1-carboxylic acid (3,5-bis-trifluoromethyl-benzyl)-methyl-amide hydrochloride] | – | 0.347 | 0.065
16 | Cc1cc(F)ccc1[C@H]1CNCCN1C(=O)N(C)C(C)(C)c1cc(C(F)(F)F)cc(C(F)(F)F)c1.Cl [Example 21, 2-(S)-(4-Fluoro-2-methyl-phenyl)-piperazine-1-carboxylic acid [1-(3,5-bis-trifluoromethyl-phenyl)-1-methyl-ethyl]-methyl-amide hydrochloride] | – | 1.12 | 0.4
17 | Cc1cc(F)ccc1[C@H]1CN(CCN)CCN1C(=O)N(C)Cc1cc(C(F)(F)F)cc(C(F)(F)F)c1 [Example 22, 4(2-Aminoethyl)-2-(S)-(4-fluoro-2-methyl-phenyl)-piperazine-1-carboxylic acid (3,5-bis-trifluoromethyl-benzyl)-methyl-amide dihydrochloride Salt] | – | 0.407 | –
18 | Cc1cc(F)ccc1C1C(C)NCCN1C(=O)N(C)Cc1cc(C(F)(F)F)cc(C(F)(F)F)c1 (stereo not drawn) [Example 23, 2-(4-Fluoro-2-methyl-phenyl)-3-methyl-piperazine-1-carboxylic acid (3,5-bis-trifluoromethyl-benzyl)-methyl-amide hydrochloride salt] | – | 0.479 | –
19 | Cc1cc(F)ccc1C1CNCC(C)N1C(=O)N(C)Cc1cc(C(F)(F)F)cc(C(F)(F)F)c1.Cl (stereo not drawn) [Example 24, 2-(2-Methyl-4-fluoro-phenyl)-6-methyl-piperazine-1-carboxylic acid (3,5-bis-trifluoromethyl-benzyl)-methyl-amide hydrochloride salt] | > 200 | 0.661 | –
20 | Cc1cc(F)ccc1[C@H]1CNCCN1C(=O)N(C)C1(c2cc(C(F)(F)F)cc(C(F)(F)F)c2)CC1 [Example 25, 2-(S)-(4-Fluoro-2-methyl-phenyl)-piperazine-1-carboxylic acid [1-3,5-bis-trifluoromethyl-phenyl)-cyclopropyl]-methyl-amide hydrochloride] | – | 0.479 | –
21 | CS(=O)(=O)O.Cc1cc(F)ccc1[C@H]1CNCCN1C(=O)N(C)[C@H](C)c1cc(C(F)(F)F)cc(C(F)(F)F)c1 [Example 36, 2(S)-(4-Fluoro-2-methyl-phenyl)-piperazine-1-carboxylic acid [1-(R)-(3,5-bis-trifluoromethyl-phenyl)-ethyl]-methyl-amide methansulphonate] | – | – | 0.05
